Source: patent US20260234187A1, “ANTIMICROBIAL PEPTIDES” (MATERIAS S.R.L., priority 2020, published 2026)
Where no end group is shown, it is not given here.

Columns and labels:
[1] = kinetics of structural rearrangements by Circular Dichroism, secondary structure by BESTSEL and Dichroweb; assay type: physicochemical; conditions: sodium acetate pH 4
Protocol: The structural and conformational characterization of the RiLK1 peptide was assessed by investigating its secondary structure by Circular Dichroism (CD) spectroscopy in the absence and in the presence of Sodium Dodecyl Sulfate (SDS) at a concentration of 3 mM to mimic the condition of the bacterial cell membrane.
The CD assays were performed with a Jasco J-810 spectropolarimeter equipped with a thermostated cuvette holder. The samples were loaded into a 0.1 cm long quartz cuvette (Hellma Analytics) and the spectrum was analysed in the range from 190 nm to 250 nm at room temperature for each sample.
The CD spectra were acquired at a scan rate of 20 nm/min, and the recorded results represent an average of 5 scans.
The mean residue ellipticity ([θ], degrees cm^2 dmol^−1) was calculated using the following equation: […]
The secondary structure was calculated through the DICHROWEB site (Whitmore L and Wallace B A, 2004, Nucleic Acids Research 32:668-673, Whitmore L and Wallace B A, 2008, Biopolymers 89:392-400, Lobley et al, 2002, Bioinformatics 18:211-212), using three different algorithms (SELCON3, CONTIN-LL and CDSSTR) (Sreerema N and Woody R W, 1993, Analytical Biochemistry 287:252-260) and selecting the SMP180 protein as the comparison data set, which includes a high number of spectra of soluble and membrane proteins (Abdul-Gader A et al, 2011, Bioinformatics 27:1630-1636).
The secondary structure was also calculated through the BETSEL site (Micsonai A. et al, 2018, Nucleic Acids Res. 46: W315-W322; Micsonai A. et al, 2015, Proc Natl Acad Sci USA; 112: E3095-E3103).
The kinetics of the structural rearrangements of the RiLK1 peptide were assessed over 24 hours by Circular Dichroism (CD) spectroscopy and fluorescence spectroscopy.
0.1 g/L of RiLK1 peptide was dissolved in 10 mM sodium acetate buffer at pH 4, in the absence or presence of 3 mM SDS.

[2] = system: Candida albicans (ATCC 14053); test: activity against yeast, plate count, MFC; assay type: cell-based; conditions: C. albicans; 25 μM, 6 h
Protocol: The inhibitory activity of the RiLK1 peptide was determined against the yeast Candida albicans. A stock culture was prepared in which 10^5 CFUs of C. albicans were inoculated in 10 ml of buffered peptone water. A reference strain (ATCC 14053) was used for this species. The culture was incubated for 6 h at 37° C. with the RiLK1 peptide at 25 μM concentrations. At the same time, control samples were incubated without adding the peptide. 100 μl of the samples thus prepared were seeded on DG18 plates (Dichloran 18% Glycerol Agar-ISO 21527-2) and incubated at 25° C. for 7 days. All experimental conditions investigated used the plate count method to estimate the antimycotic activity of the peptide. Specifically, the numbers of colonies grown on agar plates seeded with the cultures in the absence or presence of the individual peptide dilutions were counted and compared. The standard deviations of the triplicate incubations of each plate were determined using statistical software. The evaluation of the Minimum Fungicidal Concentration (MFC), i.e., the lowest concentration of antifungal agent capable of 99.9% inhibition of fungal growth on plates, was carried out as described in Bílikova et al, (2015, Peptides 68:190-196).

[3] = system: Aspergillus brasiliensis (ATCC 9341); test: antifungal activity, plate count, MFC; assay type: cell-based; conditions: A. brasiliensis; 25 μM, 6 h
Protocol: The antifungal activity of the RiLK1 peptide was determined against Aspergillus brasiliensis. For this purpose, a stock culture was prepared in which 10^5 CFUs of A. brasiliensis were inoculated in 10 ml of buffered peptone water. A reference strain (ATCC 9341) was used for this fungal species. The culture was incubated for 6 h at 37° C. with the RiLK1 peptide at 25 μM concentrations. At the same time, control samples were incubated without adding the peptide. 100 μl of the samples thus prepared were seeded on DG18 plates (Dichloran 18% Glycerol Agar-ISO 21527-2) and incubated at 25° C. for 7 days. All experimental conditions investigated used the plate count method to estimate the fungicidal activity of the peptide. Specifically, the numbers of colonies grown on agar plates seeded with the fungal suspensions in the absence or presence of the individual peptide dilutions were counted and compared. The standard deviations of the triplicate incubations of each plate were determined using statistical software. The evaluation of the Minimum Fungicidal Concentration (MFC), i.e., the lowest concentration of antifungal agent capable of 99.9% inhibition of fungal growth on plates, was carried out as described in Bílikova et al, (2015, Peptides 68:190-196).

RLKWVRIWRR-NH2 [RiLK1, RLKWVRIWRR]
Random (Bestsel) ([1]; t = 0 w/ 3 mM SDS): 41.3%
Random (DichroWeb CONTIN-LL) ([1]; t = 0 w/ 3 mM SDS): 40%
α-helix (Bestsel) ([1]; t = 0 w/ 3 mM SDS): 7.4%
α-helix (DichroWeb CONTIN-LL) ([1]; t = 0 w/ 3 mM SDS): 22%
β-sheet (Bestsel) ([1]; t = 0 w/ 3 mM SDS): 51.4%
β-sheet (DichroWeb CONTIN-LL) ([1]; t = 0 w/ 3 mM SDS): 38%
Random (Bestsel) ([1]; t = 5 min w/ 3 mM SDS): 42.2%
Random (DichroWeb CONTIN-LL) ([1]; t = 5 min w/ 3 mM SDS): 36%
α-helix (Bestsel) ([1]; t = 5 min w/ 3 mM SDS): 4.4%
α-helix (DichroWeb CONTIN-LL) ([1]; t = 5 min w/ 3 mM SDS): 22%
β-sheet (Bestsel) ([1]; t = 5 min w/ 3 mM SDS): 53.4%
β-sheet (DichroWeb CONTIN-LL) ([1]; t = 5 min w/ 3 mM SDS): 42%
Random (Bestsel) ([1]; t = 30 min w/ 3 mM SDS): 40.3%
Random (DichroWeb CONTIN-LL) ([1]; t = 30 min w/ 3 mM SDS): 37%
α-helix (Bestsel) ([1]; t = 30 min w/ 3 mM SDS): 11%
α-helix (DichroWeb CONTIN-LL) ([1]; t = 30 min w/ 3 mM SDS): 25%
β-sheet (Bestsel) ([1]; t = 30 min w/ 3 mM SDS): 48.7%
β-sheet (DichroWeb CONTIN-LL) ([1]; t = 30 min w/ 3 mM SDS): 38%
Random (DichroWeb CONTIN-LL) ([1]; t = 1 h (60 min) w/ 3 mM SDS): 39%
α-helix (DichroWeb CONTIN-LL) ([1]; t = 1 h (60 min) w/ 3 mM SDS): 23%
β-sheet (DichroWeb CONTIN-LL) ([1]; t = 1 h (60 min) w/ 3 mM SDS): 38%
Random (Bestsel) ([1]; t = 1 h w/ 3 mM SDS): 39.1%
α-helix (Bestsel) ([1]; t = 1 h w/ 3 mM SDS): 9.8%
β-sheet (Bestsel) ([1]; t = 1 h w/ 3 mM SDS): 51.1%
Random (DichroWeb CONTIN-LL) ([1]; t = 5 h (300 min) w/ 3 mM SDS): 38%
α-helix (DichroWeb CONTIN-LL) ([1]; t = 5 h (300 min) w/ 3 mM SDS): 19%
β-sheet (DichroWeb CONTIN-LL) ([1]; t = 5 h (300 min) w/ 3 mM SDS): 43%
Random (Bestsel) ([1]; t = 5 h w/ 3 mM SDS): 39.3%
α-helix (Bestsel) ([1]; t = 5 h w/ 3 mM SDS): 6.7%
β-sheet (Bestsel) ([1]; t = 5 h w/ 3 mM SDS): 54%
Random (DichroWeb CONTIN-LL) ([1]; t = 6 h (360 min) w/ 3 mM SDS): 37%
α-helix (DichroWeb CONTIN-LL) ([1]; t = 6 h (360 min) w/ 3 mM SDS): 19%
β-sheet (DichroWeb CONTIN-LL) ([1]; t = 6 h (360 min) w/ 3 mM SDS): 44%
Random (Bestsel) ([1]; t = 6 h w/ 3 mM SDS): 40.1%
α-helix (Bestsel) ([1]; t = 6 h w/ 3 mM SDS): 8%
β-sheet (Bestsel) ([1]; t = 6 h w/ 3 mM SDS): 52%
Random (Bestsel) ([1]; t = 24 h w/ 3 mM SDS): 38%
Random (DichroWeb CONTIN-LL) ([1]; t = 24 h w/ 3 mM SDS): 24%
α-helix (Bestsel) ([1]; t = 24 h w/ 3 mM SDS): 8.4%
α-helix (DichroWeb CONTIN-LL) ([1]; t = 24 h w/ 3 mM SDS): 29%
β-sheet (Bestsel) ([1]; t = 24 h w/ 3 mM SDS): 53.6%
β-sheet (DichroWeb CONTIN-LL) ([1]; t = 24 h w/ 3 mM SDS): 47%
Random (Bestsel) ([1]; w/o 3 mM SDS): 51.5%
Random (DichroWeb CONTIN-LL) ([1]; w/o 3 mM SDS): 61%
α-helix (Bestsel) ([1]; w/o 3 mM SDS): 1.2%
α-helix (DichroWeb CONTIN-LL) ([1]; w/o 3 mM SDS): 4%
β-sheet (Bestsel) ([1]; w/o 3 mM SDS): 47.3%
β-sheet (DichroWeb CONTIN-LL) ([1]; w/o 3 mM SDS): 35%
Drop Log CFU/ml [2]: 5 Log CFU/ml
post-treatment decrease in the fungal load [2]: 5 Log
Drop Log CFU/ml [3]: 5 Log CFU/ml
post-treatment decrease in the fungal load [3]: 5 Log
